Experimental findings from patent US7034056B2, “Aryl and biaryl compounds having MCH modulatory activity” (Pharmacopeia Drug Discovery, inc., priority 2001, dated 2006) are described below.

In the assay the target is T1, hMCHR (MCH receptor) (Homo sapiens, UniProt Q99705).
T1 construct: (or internally produced); host or cells: CHO (Chinese hamster ovary) cells, membrane preparation
The experiment in a line: MCH Assay PCOP Protocol ([125I]-MCH SPA binding to hMCHR-CHO membranes). The following applies: [125I]-MCH 0.5 nM, hMCHR-CHO membranes; read-out: Activity (ranges of Ki values). The procedure: A reaction mixture of 10 μg hMCHR-CHO overexpressing membranes (from Receptor Biology, Inc., Beltsville, Md., or internally produced) and 100 μg/well WGA-SPA beads (from Amersham Pharmacia Biotech, Inc., Piscataway, N.J.)/100 μl was prepared in MCHR assay buffer (25 mM HEPES, pH 7.4, 10 mM NaCl, 10 mM MgCl2, 5 mM MnCl2, 0.1% BSA). […] The assay plates were shaken for 5 minutes on a plate shaker, then incubated for 2 hours before cpm/well were determined in a Microbeta Trilux counter (from PerkinElmer Wallac, Inc., Gaithersburg, Md.).

T1 sequence (Q99705 whole entry): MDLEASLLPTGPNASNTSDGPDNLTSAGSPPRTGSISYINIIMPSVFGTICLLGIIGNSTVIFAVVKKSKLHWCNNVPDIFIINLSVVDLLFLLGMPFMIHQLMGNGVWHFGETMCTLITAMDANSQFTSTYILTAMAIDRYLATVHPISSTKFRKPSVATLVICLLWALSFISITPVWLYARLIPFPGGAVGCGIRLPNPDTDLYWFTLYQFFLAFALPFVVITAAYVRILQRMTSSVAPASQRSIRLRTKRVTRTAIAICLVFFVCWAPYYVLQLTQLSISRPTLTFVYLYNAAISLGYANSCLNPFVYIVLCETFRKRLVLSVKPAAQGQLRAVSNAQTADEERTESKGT

Turning to `O=C(NCC(CCNC1CCCC1)c1ccc(Cl)c(Cl)c1)c1cc(C(F)(F)F)cc(C(F)(F)F)c1` (racemic) [Example 20, (R,S)-N-[4-Cyclopentylamino-2-(3,4-dichloro-phenyl)-butyl]-3,5-bis-trifluoromethyl-benzamide], the Ki fell in the range of 501 to 2500 nM. Turning to `O=S(=O)(NCC(CCNC1CCCC1)c1ccc(Cl)c(Cl)c1)c1ccc(Cl)c(Cl)c1` (racemic) [Example 21, (R,S)-3,4-Dichloro-N-[4-cyclopentylamino-2-(3,4-dichloro-phenyl)-butyl]-benzenesulfonamide], the Ki was 501 to 2500 nM. Regarding `O=C(NCC(CCNC1CCC1)c1ccc(Cl)c(Cl)c1)Nc1ccc(F)c([N+](=O)[O-])c1` (racemic) [Example 22], the Ki fell in the range of 501 to 2500 nM.

As to `CNCCC(CNC(=O)c1ccc(F)c(F)c1)c1ccc(-c2cccc(C#N)c2)cc1` (racemic) [Example 24, (R,S)-N-[2-(3′-Cyano-biphenyl-4-yl)-4-methylamino-butyl]-3,4-difluoro-benzamide], the Ki fell in the range of 501 to 2500 nM.

As for `CN(C)CCC(CNS(=O)(=O)c1cc(Cl)cc(Cl)c1)c1ccc(-c2cccc(C#N)c2)cc1` (racemic) [Example 25, (R,S)-3,5-Dichloro-N-[2-(3′-cyano-biphenyl-4-yl)-4-dimethylaminobutyl]-benzenesulfonamide], the Ki was in the range of 501 to 2500 nM. As to `CC(C)NCCC(CNC(=O)Oc1ccc(Cl)cc1)c1ccc(-c2cccc(C#N)c2)cc1` (racemic) [Example 26, (R,S)-[-2-(3′-Cyano-biphenyl-4-yl)-4-isopropylaminobutyl]-carbamic acid-4-chlorophenyl ester], the Ki was 501 to 2500 nM. Take `CS(=O)(=O)NC1CCN(CCC(CNC(=O)Nc2cc(Cl)cc(Cl)c2)c2ccc(-c3cccc(C#N)c3)cc2)CC1` (racemic) [Example 29, (R,S)-N-(1-{3-(3′-Cyano-biphenyl-4-yl)-4-[3-(3,5-dichloro-phenyl)-ureido]-butyl}-piperidin-4-yl)methane-sulfonamide]: the Ki was in the range of 501 to 2500 nM. Turning to `CN(CCC(C(=O)NCc1cc(C(F)(F)F)cc(C(F)(F)F)c1)c1ccc(Cl)c(Cl)c1)C1CCCCC1` (racemic) [Example 30, (R,S)-N-(3,5-Bistrifluoromethyl-benzyl)-4-(cyclohexyl-methyl-amino)-2-(3,4-dichloro-phenyl)-butyramide], the Ki lay within 501 to 2500 nM.

As for `CCNC(=O)NC1CCN(CCC(CNC(=O)Nc2cc(Cl)cc(Cl)c2)c2ccc(-c3cccc(C#N)c3)cc2)C1` [Example 27, (R,S)-1-1-{3-(3′-Cyano-biphenyl-4-yl)-4-[3 (3,5-dichloro-phenyl)-ureido]-butyl}-pyrrolidin-3-yl)-3-ethyl-urea], the Ki fell in the range of 501 to 2500 nM.

`N#Cc1cccc(-c2ccc([C@H](CCN3CC[C@@H](NC(=O)c4cc(Cl)cc(Cl)c4)C3)CNC(=O)Nc3cc(Cl)cc(Cl)c3)cc2)c1` [Example 28, (R,S)-3,5-Dichloro-N-(1-{3-(3′-cyano-biphenyl-4-yl)-4-[3-(3,5-dichloro-phenyl)-ureido]-butyl}-pyrrolidin-3-yl)-benzamide]: the Ki fell in the range of 501 to 2500 nM.

Turning to `CNCCC(C(=O)Nc1cc(Cl)cc(Cl)c1)c1ccc(-c2cccc(C#N)c2)cc1` (stereo not drawn) [Example 31, 2-(3′-Cyano-biphenyl-4-yl)-N-(3,5-dichloro-phenyl)-4-methylamino-butyramide], the Ki lay within 501 to 2500 nM. The same measure for `CN(C)CCC(CN1CCN(c2cc(Cl)cc(Cl)c2)C1=O)c1ccc(-c2cccc(C#N)c2)cc1` (stereo not drawn) [Example 32, 4′-{1-[3-(3,5-Dichlorophemyl)-2-oxoimidazolidin-1-ylmethyl]-3-dimethylaminopropyl}-biphenyl-3-carbonitrile]: 501 to 2500 nM; for `CN(C)CCC(OC(=O)Nc1cc(Cl)cc(Cl)c1)c1ccc(-c2ccncc2)cc1` (stereo not drawn) [Example 33, (3,5-Dichloro-phenyl)-carbamic acid 3-dimethylamino-1-(4-pyridin-4-yl-phenyl)-propyl ester]: 501 to 2500 nM; for `CN(C)CCCNCCC(CNC(=O)Nc1cc(Cl)cc(Cl)c1)c1ccc(-c2cccnc2)cc1` (stereo not drawn) [Example 35]: 0.4 to 50 nM. Regarding `CN(C)CCC(CNC(=O)Nc1cc(Cl)cc(Cl)c1)c1ccc(-c2cccnc2)cc1` (stereo not drawn) [Example 36], the Ki fell in the range of 0.4 to 50 nM.

In the case of `O=C(NCC(CCNC1CCCC1)c1ccc(-c2cc[n+]([O-])cc2)cc1)Nc1cc(Cl)cc(Cl)c1` (stereo not drawn) [Example 37], the Ki was 0.4 to 50 nM. For `CN(C)CCC(CNC(=O)Nc1cc(Cl)cc(Cl)c1)c1ccc(-c2cccc(C(N)=O)c2)cc1` (stereo not drawn) [Example 38], the Ki fell in the range of 0.4 to 50 nM. With `CN(C)CCC(CNC(=O)Nc1cc(Cl)cc(Cl)c1)c1ccc(-c2ccncc2)cc1` (stereo not drawn) [Example 39], the Ki fell in the range of 51 to 500 nM.

`C[N+](C)([O-])CCC(CNC(=O)Nc1cc(Cl)cc(Cl)c1)c1ccc(-c2ccc[n+]([O-])c2)cc1` (stereo not drawn) [Example 40]: the Ki was in the range of 501 to 2500 nM. The same measure for `C[N+](C)([O-])CCC(CNC(=O)Nc1cc(Cl)cc(Cl)c1)c1ccc(-c2cc[n+]([O-])cc2)cc1` (stereo not drawn) [Example 41]: 501 to 2500 nM.

`CN(C)CCC(OC(=O)Nc1cc(Cl)cc(Cl)c1)c1ccc(-c2cccnc2)cc1` (stereo not drawn) [Example 42]: the Ki was 501 to 2500 nM. With `N#Cc1cccc(-c2ccc(C(CCNC3CC3)CNC(=O)Nc3cccc(Cl)c3)cc2)c1` (stereo not drawn) [Example 43], the Ki was 0.4 to 50 nM.

`CNCCC(CNC(=O)Nc1ccc(F)c(F)c1)c1ccc(-c2cccc(C#N)c2)cc1` (stereo not drawn) [Example 44]: the Ki lay within 0.4 to 50 nM. The same measure for `CNCCC(CNC(=O)Nc1cccc(Cl)c1)c1ccc(-c2cccc(C#N)c2)cc1` (stereo not drawn) [Example 45]: 0.4 to 50 nM; for `CNCCC(CNC(=O)Nc1ccc(F)c(Cl)c1)c1ccc(-c2cccc(C#N)c2)cc1` (stereo not drawn) [Example 46]: 0.4 to 50 nM; for `CNCCC(CNC(=O)Nc1cccc(F)c1)c1ccc(-c2cccc(C#N)c2)cc1` (stereo not drawn) [Example 49]: 0.4 to 50 nM. As for `N#Cc1cccc(-c2ccc(C(CCNC3CC3)CNC(=O)Nc3ccc(F)c(F)c3)cc2)c1` (stereo not drawn) [Example 53], the Ki lay within 0.4 to 50 nM. Turning to `N#Cc1cccc(-c2ccc(C(CCNC3CC3)CNC(=O)Nc3cccc(F)c3)cc2)c1` (stereo not drawn) [Example 54], the Ki was in the range of 0.4 to 50 nM. In the case of `N#Cc1cccc(-c2ccc(C(CCNC3CC3)CNC(=O)Nc3ccc(F)c(Cl)c3)cc2)c1` (stereo not drawn) [Example 56], the Ki fell in the range of 0.4 to 50 nM. `CNCCC(CNC(=O)Nc1ccccc1)c1ccc(-c2cccc(C#N)c2)cc1` (stereo not drawn) [Example 57]: the Ki lay within 0.4 to 50 nM. Regarding `N#Cc1cccc(-c2ccc(C(CCNC3CC3)CNC(=O)Nc3ccccc3)cc2)c1` (stereo not drawn) [Example 58], the Ki was in the range of 0.4 to 50 nM. On to `N#Cc1cccc(-c2ccc(C(CCNC3CC3)CNC(=O)Nc3ccc(F)cc3)cc2)c1` (stereo not drawn) [Example 59], for which the Ki lay in the range of 0.4 to 50 nM. Turning to `CNCCC(CNC(=O)Nc1ccc(F)cc1)c1ccc(-c2cccc(C#N)c2)cc1` (stereo not drawn) [Example 60], the Ki was 0.4 to 50 nM. In the case of `COc1cccc(NC(=O)NCC(CCN(C)C)c2ccc(-c3cccc(C#N)c3)cc2)c1` (stereo not drawn) [Example 63], the Ki was in the range of 0.4 to 50 nM. The same measure for `CNCCC(CNC(=O)Nc1ccc(Cl)cc1)c1ccc(-c2cccc(C#N)c2)cc1` (stereo not drawn) [Example 64]: 0.4 to 50 nM; for `N#Cc1cccc(-c2ccc(C(CCNC3CC3)CNC(=O)Nc3ccc(Cl)cc3)cc2)c1` (stereo not drawn) [Example 65]: 0.4 to 50 nM. Take `CN(C)CCC(CNC(=O)c1cc(F)cc(F)c1)c1ccc(-c2cccc(C#N)c2)cc1` (stereo not drawn) [Example 66]: the Ki was 0.4 to 50 nM. For the molecule `CN(C)CCC(CNC(=O)c1ccc(F)c(F)c1)c1ccc(-c2cccc(C#N)c2)cc1` (stereo not drawn) [Example 67], the Ki was 51 to 500 nM. As for `N#Cc1cccc(-c2ccc(C(CCNC3CC3)CNC(=O)c3ccc(F)c(F)c3)cc2)c1` (stereo not drawn) [Example 68], the Ki lay within 51 to 500 nM. As for `N#Cc1cccc(-c2ccc(C(CCNC3CC3)CNC(=O)c3cc(F)cc(F)c3)cc2)c1` (stereo not drawn) [Example 69], the Ki fell in the range of 51 to 500 nM. As for `CNCCC(CNC(=O)c1cc(F)cc(F)c1)c1ccc(-c2cccc(C#N)c2)cc1` (stereo not drawn) [Example 70], the Ki lay within 51 to 500 nM. In the case of `CN(C)CCC(CNC(=O)Nc1cccnc1)c1ccc(-c2cccc(C#N)c2)cc1` (stereo not drawn) [Example 71], the Ki was in the range of 51 to 500 nM. Take `COCCNCCC(CNC(=O)Nc1cc(Cl)cc(Cl)c1)c1ccc(-c2cccc(C#N)c2)cc1` (stereo not drawn) [Example 72]: the Ki lay in the range of 0.4 to 50 nM. With `N#Cc1cccc(-c2ccc(C(CCNC3CCCC3)CNC(=O)Nc3ccc(F)c(F)c3)cc2)c1` (stereo not drawn) [Example 74], the Ki lay within 0.4 to 50 nM. Consider `N#Cc1cccc(-c2ccc(C(CCNC3CCCC3)CNC(=O)Nc3ccc(F)c(Cl)c3)cc2)c1` (stereo not drawn) [Example 75], for which the Ki was 0.4 to 50 nM. Take `N#Cc1cccc(-c2ccc(C(CCNC3CC3)CNC(=O)Nc3cc(Cl)cc(Cl)c3)cc2)c1` (stereo not drawn) [Example 76]: the Ki is 0.4 to 50 nM. The figure for `N#Cc1cccc(-c2ccc(C(CCN3CCOCC3)CNC(=O)Nc3cc(Cl)cc(Cl)c3)cc2)c1` (stereo not drawn) [Example 81] is 0.4 to 50 nM; for `N#Cc1cccc(-c2ccc(C(CCNC3CCCC3)CNC(=O)c3cc(Cl)cc(Cl)c3)cc2)c1` (stereo not drawn) [Example 82] it is 51 to 500 nM; for `N#Cc1cccc(-c2ccc(C(CCNC3CCCC3)CNC(=O)c3ccc(F)c(F)c3)cc2)c1` (stereo not drawn) [Example 83] it is 51 to 500 nM. Consider `N#Cc1cccc(-c2ccc(C(CCNC3CCCC3)CNC(=O)c3cccc(F)c3)cc2)c1` (stereo not drawn) [Example 84], for which the Ki was in the range of 51 to 500 nM. `N#Cc1cccc(-c2ccc(C(CCNC3CCCC3)CNC(=O)c3cccc(Cl)c3)cc2)c1` (stereo not drawn) [Example 85]: the Ki was in the range of 51 to 500 nM. Regarding `CS(=O)(=O)N(CCC(CNC(=O)Nc1cc(Cl)cc(Cl)c1)c1ccc(-c2cccc(C#N)c2)cc1)C1CCCC1` (stereo not drawn) [Example 87], the Ki fell in the range of 501 to 2500 nM. Turning to `CN(C)CCCNCCC(CNC(=O)Nc1cc(Cl)cc(Cl)c1)c1ccc(-c2cccc(OC(F)(F)F)c2)cc1` (stereo not drawn) [Example 88], the Ki was 0.4 to 50 nM. The same measure for `O=C(NCC(CCNC1CCCC1)c1ccc(-c2ccc(F)c(F)c2)cc1)Nc1cc(Cl)cc(Cl)c1` (stereo not drawn) [Example 90]: 0.4 to 50 nM.
